Measurements taken from patent publication US10934315B2, “Process for preparing bortezomib, intermediates, and crystalline forms thereof” (PHARMACORE BIOTECH CO., LTD., priority 2018, dated 2021).

Assay: Stability test of crystalline form D of bortezomib in a sealed state at 0-10° C.
Assay type: physicochemical
Conditions: for Purity (%): HPLC purity
Protocol: The crystalline form of bortezomib prepared in Example 2 was subjected to a stability test in a sealed state at a temperature of 0-10° C. for 3.5 months.

(S, S) and (R, R) diastereomer (%) (1 month): 0.046%
(S, S) and (R, R) diastereomer (%) (1 week): 0.068%
(S, S) and (R, R) diastereomer (%) (2 month): 0.039%
(S, S) and (R, R) diastereomer (%) (2 week): 0.042%
(S, S) and (R, R) diastereomer (%) (3.5 month): 0.048%
Purity (%) (1 month): 99.80%
Purity (%) (1 week): 99.61%
Purity (%) (2 month): 99.74%
Purity (%) (2 week): 99.87%
Purity (%) (3.5 month): 99.69%
SMILES: CC(C)C[C@H](NC(=O)[C@H](Cc1ccccc1)NC(=O)c1cnccn1)B(O)O [Form D of Formula V, [(1R)-3-methyl-1-[[(2S)-1-oxo-3-phenyl-2-[(pyrazinylcarbonyl)amino]propyl]amino]butyl] boronic acid]
Stability (HPLC purity and crystalline form) (3.5 months): maintained in a stable state without any change in HPLC purity and crystalline form
